From US12606528B2, “Methods and materials for inhibiting NF-kB activity” (University of Pittsburgh - Of the Commonwealth System of …, priority 2019, dated 2026)

tested on: NF-κB; assay: NF-κB assay: THP1-NF-κB-LUC cells, LPS-stimulated secreted luciferase; assay type: cell-based; conditions: THP1-NF-κB-LUC cells, LPS-stimulated; read-out: IC50 (NF-κB assay)
Method: FIG. 1 contains line plots showing NF-κB activity of exemplified compounds. 25k THP1-NF-κB-LUC cells were dispensed into 384 well plate (per well). Cells were treated with compounds (2 μM and 0.2 μM) for 2 hours before addition of LPS (10 ng/mL) for 18 hours. Secreted luciferase activity were measured using quant-luc reagents (1 bag of luc reagent dilute to 40 mL, use 10 μL per well). Data were normalized to vehicle control and graphed. Structures of selected exemplified compounds are shown.
FIG. 2 contains heat charts showing NF-κB activity of exemplified compounds as a function of concentration. 25k THP1-NF-κB-LUC cells were dispensed into 384 well plate (per well). Cells were treated with compounds (with serial dilution) for 2 hours before addition of LPS (10 ng/ml) for 18 hours. Secreted luciferase activity were measured using quant-luc reagents (1 bag of luc reagent dilute to 40 mL, use 10 μL per well). Structures of selected exemplified compounds are shown.
25k THP1-NF-κB-LUC cells were dispensed into 384 well plate (per well). Cells were treated with compounds with various concentrations for 2 hours before addition of LPS (10 ng/mL) for 18 hours. Secreted luciferase activity were measured using quant-luc reagents (1 bag of luc reagent dilute to 40 mL, use 10 μL per well). Data were normalized to vehicle control and graphed. Compound IC50 towards inhibiting NF-κB were determined through Prism. Similarly, 10k human PBMCs cells were cultured in 384 well plate (per well). Cells were treated with compounds with various concentrations for 2 hours before addition of LPS (10 ng/ml) for 18 hours, and supernatants were collected and assayed for TNF ELISA. Compound IC50 towards inhibiting TNF release were determined through Prism. • Activity: “+”>10 μM, “++”>1 μM and <10 μM, “+++”>0.1 μM and <1 μM, “++++”<0.1 μM.

Row | IC50 [nM] | SMILES
1 | 100 to 1000 | O=C(NCCc1ccccc1)c1ccc2nc(-c3ccc(F)cc3)c(-c3ccc(F)cc3)nc2c1 [BC18435]
2 | 1000 to 10000 | Cc1cccc(-c2nc3ccc(C(=O)N4CCN(c5ncccn5)CC4)cc3nc2-c2cccc(C)c2)c1 [BC18436]
3 | < 100 | O=C(NCCCN1CCOCC1)c1ccc2nc(-c3ccc(F)cc3)c(-c3ccc(F)cc3)nc2c1 [BC18437]
4 | < 100 | O=C(NCCCN1CCCC1)c1ccc2nc(-c3ccc(F)cc3)c(-c3ccc(F)cc3)nc2c1 [BC18438]
5 | < 100 | O=C(NC1CC1)c1ccc2nc(-c3ccccc3)c(-c3ccccc3)nc2c1 [BC18439]
6 | < 100 | CCCN1CCN(C(=O)c2ccc3nc(-c4ccccc4)c(-c4ccccc4)nc3c2)CC1 [BC18440]
7 | 1000 to 10000 | Cc1cccc(-c2nc3ccc(C(=O)NCCN4CCCCC4C)cc3nc2-c2cccc(C)c2)c1 (stereo not drawn) [BC18441]
8 | < 100 | CC(C)CCNC(=O)c1ccc2nc(-c3ccc(F)cc3)c(-c3ccc(F)cc3)nc2c1 [BC18442]
9 | < 100 | CC(C)NC(=O)c1ccc2nc(-c3ccccc3)c(-c3ccccc3)nc2c1 [BC18443]
10 | > 10000 | Cc1ccc(-c2nc3ccc(C(=O)NCc4ccccc4)cc3nc2-c2ccc(C)cc2)cc1 [BC18444]
11 | 100 to 1000 | Cc1cccc(CNC(=O)c2ccc3nc(-c4ccccc4)c(-c4ccccc4)nc3c2)c1 [BC18445]
12 | > 10000 | Cc1cccc(-c2nc3ccc(C(=O)NCc4ccccc4)cc3nc2-c2cccc(C)c2)c1 [BC18446]
13 | < 100 | O=C(NCc1ccccn1)c1ccc2nc(-c3ccc(F)cc3)c(-c3ccc(F)cc3)nc2c1 [BC18447]
14 | < 100 | O=C(NC1CC1)c1ccc2nc(-c3ccc(F)cc3)c(-c3ccc(F)cc3)nc2c1 [BC18448]
15 | < 100 | O=C(NCCN1CCCC1)c1ccc2nc(-c3ccc(F)cc3)c(-c3ccc(F)cc3)nc2c1 [BC18449]
16 | < 100 | CNC(=O)c1ccc2nc(-c3ccccc3)c(-c3ccccc3)nc2c1 [BC18450]
17 | 100 to 1000 | O=C(c1ccc2nc(-c3ccccc3)c(-c3ccccc3)nc2c1)N1CCN(c2ccc(F)cc2)CC1 [BC18451]

Row | IC50 [nM] | SMILES
18 | 1000 to 10000 | CCN1CCN(CCNC(=O)c2ccc3nc(-c4cccc(C)c4)c(-c4cccc(C)c4)nc3c2)CC1 [BC18452]
19 | 1000 to 10000 | COc1ccc(-c2nc3ccc(C(=O)NCCN4CCOCC4)cc3nc2-c2ccc(OC)cc2)cc1 [BC18453]
20 | 100 to 1000 | CCCNC(=O)c1ccc2nc(-c3ccccc3)c(-c3ccccc3)nc2c1 [BC18454]
21 | > 10000 | Cc1ccc(-c2nc3ccc(C(=O)NCc4ccc(Cl)cc4)cc3nc2-c2ccc(C)cc2)cc1 [BC18455]
22 | < 100 | O=C(NCCN1CCCCC1)c1ccc2nc(-c3ccc(F)cc3)c(-c3ccc(F)cc3)nc2c1 [BC18456]
23 | > 10000 | Cc1cccc(-c2nc3ccc(C(=O)NCc4ccc(Cl)cc4)cc3nc2-c2cccc(C)c2)c1 [BC18457]
24 | < 100 | O=C(NCc1cccnc1)c1ccc2nc(-c3ccc(F)cc3)c(-c3ccc(F)cc3)nc2c1 [BC18458]
25 | < 100 | O=C(NCCCN1CCCC1=O)c1ccc2nc(-c3ccc(F)cc3)c(-c3ccc(F)cc3)nc2c1 [BC18459]
26 | < 100 | CN1CCN(CCNC(=O)c2ccc3nc(-c4ccc(F)cc4)c(-c4ccc(F)cc4)nc3c2)CC1 [BC18460]
27 | < 100 | O=C(NCCN1CCCCCC1)c1ccc2nc(-c3ccccc3)c(-c3ccccc3)nc2c1 [BC18461]
28 | < 100 | O=C(c1ccc2nc(-c3ccccc3)c(-c3ccccc3)nc2c1)N1CCN(C(=O)c2ccco2)CC1 [BC18462]
29 | 1000 to 10000 | Cc1cccc(-c2nc3ccc(C(=O)NCCN4CCN(C)CC4)cc3nc2-c2cccc(C)c2)c1 [BC18463]
30 | < 100 | O=C(NCCN1CCOCC1)c1ccc2nc(-c3ccccc3)c(-c3ccccc3)nc2c1 [BC18464]
31 | 100 to 1000 | CC(C)CCNC(=O)c1ccc2nc(-c3ccccc3)c(-c3ccccc3)nc2c1 [BC18465]
32 | > 10000 | Cc1ccc(-c2nc3ccc(C(=O)NCc4ccc(F)cc4)cc3nc2-c2ccc(C)cc2)cc1 [BC18466]
33 | 100 to 1000 | CC(CNC(=O)c1ccc2nc(-c3ccc(F)cc3)c(-c3ccc(F)cc3)nc2c1)c1ccccc1 (stereo not drawn) [BC18467]
